Columns and labels:
[1] = Phase IIa: safety, tolerability, anti-therapeutic antibodies; design: species or system human; conditions: in vivo
Description: (§1) Incidence and severity of adverse events and clinical laboratory abnormalities as a measure of safety and tolerability of orticumab. Effects of orticumab on inflammatory and metabolic biomarkers. Serum and EDTA plasma samples for soluble biomarker analysis were obtained at baseline and on Day 29 and Day 85. Biomarker assays were performed using the HumanMAP1.6 multiplex panel from Rules Based Medicine (RBM). IL-6 and TNFα immunoassays were performed at Pacific Biomarkers using Quantikine R&D High Sensitivity ELISA. IL-10, MPO and oxLDL immunoassays were performed at Pacific Biomarkers using immunoassay kits from MSA, Prognostix, and Mercodia, respectively. Presence of anti-therapeutic antibodies to orticumab.

[2] = in vivo, iv
Description: Random allocation was stratified by T2DM status and pre-diabetes status, presence of elevated screening tissue-to-background ratio TBR>2), and study site.

[3] = in vivo
SLE ApoE−/− mice [4] = test: Passive immunization: plaque area and composition in aortic root, flat preps of aorta; type: in vivo, mouse
Description: (§2) SLE ApoE^−/− mice were treated with three weekly injections of either orticumab or an irrelevant antibody as control. Six-week old mice were fed with HFD, and were injected at weeks 18, 19 and 20 with orticumab (one dose of 1 mg per week, IP injections), and sacrificed for analysis in week 22. Plaque area and composition were determined in the aortic root.

[5] = in vivo; remark: listed apart in the source
SLE ApoE−/− mice [6] = test: Passive immunization: spleen cells and plasma biomarkers; type: in vivo, mouse
Description: as §2

oxidized LDL = oxidized LDL (Homo sapiens, UniProt P04114); conditions: cited from earlier work
B6.lpr.ApoE−/− mice = test: Atherosclerosis: en face Oil Red O of aortic arch, subvalvular plaque area, Oil Red O and CD68; type: in vivo, mouse; conditions: for reduction of subvalvular plaque area / development: three injections of the antibody
[7] = test system: patients with atherosclerosis and evidence of carotid or aortic plaque inflammation; test: Phase IIa: inflammatory and metabolic biomarkers; type: in vivo, human
Description: as §1

[8] = test system: healthy subjects with elevated LDL cholesterol; test: Phase I dose-escalation trial: biomarkers and lipids; type: in vivo, human; conditions: healthy volunteers
Text: Study population: 80 healthy subjects with elevated LDL cholesterol.
The panel included: oxLDL, Lp-PLA2, hsCRP, sCD36, MCP-1, ICAM-1, IL-10, VCAM-1, IL-1ra, TNFα, insulin, and MMP-3.

[9] = test system: PBMC isolated from SLE patients; test: Uptake of DiI-oxLDL and cytokine release in SLE PBMC with MDA.P45-IgG; type: cell-based, human; conditions: 10 μg/ml antibody with 10 μg/ml labelled oxLDL, 24 hours
Description: Flow cytometry analysis of PBMCs stimulated with DIloxLDL and MDA.P45-IgG antibody: PBMCs were slowly thawed in 37° C. PBS with 2% autologous serum, counted and seeded into appropriate medium and conditions. Medium for each stimuli condition was prepared from complete RPMI (cRPMI, 10 U/ml Penicillin/streptomycin, 1% L-glutamine, 1% sodium pyruvate, 1% Hepes and 0.1% mercaptoethanol) with 2% autologous serum (Sigma Aldrich) including the respective stimuli conditions and pre-incubated in 37° C. for 1 h before stimulating the cells with it. Condition 1; unstimulated, condition 2; 10 μg/ml Dil-OxLDL (Thermo Scientific), condition 3; 10 μg/ml Dil-OxLDL with MDA.P45-IgG. (Dil-OxLDL refers to oxidized LDL complexed with Dil dye).
At time of experiment, cells were slowly thawed in 37° C. PBS containing 2% autologous serum. Cells were counted and all cells obtained were divided into three wells for respective condition mentioned above for 24 h at 37° C. in 5% CO2. After 24 h stimulation, medium was harvested and kept in −80° C. until cytokine analysis. Cells were washed twice in FACS buffer (PBS 1% bovine serum albumin […] EDTA), then stained with Zombie Aqua viability dye for 20 minutes in room temperature (RT). This was followed by another wash then incubation with anti-HLA-DR APC-Cy7 anti-CD3-PECy7 and anti-CD14-AF700 for 30 minutes in RT prior acquisition in Gallios flow cytometer (Beckman Coulter, Brea, Calif., USA). Cell populations were manually gated in FlowJo LTT (Tree Star, San Diego, Calif., USA).
Multiplex analysis of PBMC cell culture medium: Cell culture medium from human SLE and control PBMCs were thawed on ice before analyzed using Multiplex Inflammation assay (Merck, Millipore, Burlington, Mass., USA) according to following kit instructions.
Having observed the protective effect of MDA-p45 IgG on atherosclerosis development in B6.lpr.ApoE−/− mice, we next investigated how this antibody affected the interaction of SLE PBMC with oxLDL. We incubated the cells with 10 μg/ml of fluorescently labelled oxLDL for 24 hours with and without addition of 10 μg/ml MDA-p45 IgG.

[10] = male mice, 1 mg i.p. weekly for three weeks, vs control IgG

Chain of oxidized LDL (P04114 28-4563): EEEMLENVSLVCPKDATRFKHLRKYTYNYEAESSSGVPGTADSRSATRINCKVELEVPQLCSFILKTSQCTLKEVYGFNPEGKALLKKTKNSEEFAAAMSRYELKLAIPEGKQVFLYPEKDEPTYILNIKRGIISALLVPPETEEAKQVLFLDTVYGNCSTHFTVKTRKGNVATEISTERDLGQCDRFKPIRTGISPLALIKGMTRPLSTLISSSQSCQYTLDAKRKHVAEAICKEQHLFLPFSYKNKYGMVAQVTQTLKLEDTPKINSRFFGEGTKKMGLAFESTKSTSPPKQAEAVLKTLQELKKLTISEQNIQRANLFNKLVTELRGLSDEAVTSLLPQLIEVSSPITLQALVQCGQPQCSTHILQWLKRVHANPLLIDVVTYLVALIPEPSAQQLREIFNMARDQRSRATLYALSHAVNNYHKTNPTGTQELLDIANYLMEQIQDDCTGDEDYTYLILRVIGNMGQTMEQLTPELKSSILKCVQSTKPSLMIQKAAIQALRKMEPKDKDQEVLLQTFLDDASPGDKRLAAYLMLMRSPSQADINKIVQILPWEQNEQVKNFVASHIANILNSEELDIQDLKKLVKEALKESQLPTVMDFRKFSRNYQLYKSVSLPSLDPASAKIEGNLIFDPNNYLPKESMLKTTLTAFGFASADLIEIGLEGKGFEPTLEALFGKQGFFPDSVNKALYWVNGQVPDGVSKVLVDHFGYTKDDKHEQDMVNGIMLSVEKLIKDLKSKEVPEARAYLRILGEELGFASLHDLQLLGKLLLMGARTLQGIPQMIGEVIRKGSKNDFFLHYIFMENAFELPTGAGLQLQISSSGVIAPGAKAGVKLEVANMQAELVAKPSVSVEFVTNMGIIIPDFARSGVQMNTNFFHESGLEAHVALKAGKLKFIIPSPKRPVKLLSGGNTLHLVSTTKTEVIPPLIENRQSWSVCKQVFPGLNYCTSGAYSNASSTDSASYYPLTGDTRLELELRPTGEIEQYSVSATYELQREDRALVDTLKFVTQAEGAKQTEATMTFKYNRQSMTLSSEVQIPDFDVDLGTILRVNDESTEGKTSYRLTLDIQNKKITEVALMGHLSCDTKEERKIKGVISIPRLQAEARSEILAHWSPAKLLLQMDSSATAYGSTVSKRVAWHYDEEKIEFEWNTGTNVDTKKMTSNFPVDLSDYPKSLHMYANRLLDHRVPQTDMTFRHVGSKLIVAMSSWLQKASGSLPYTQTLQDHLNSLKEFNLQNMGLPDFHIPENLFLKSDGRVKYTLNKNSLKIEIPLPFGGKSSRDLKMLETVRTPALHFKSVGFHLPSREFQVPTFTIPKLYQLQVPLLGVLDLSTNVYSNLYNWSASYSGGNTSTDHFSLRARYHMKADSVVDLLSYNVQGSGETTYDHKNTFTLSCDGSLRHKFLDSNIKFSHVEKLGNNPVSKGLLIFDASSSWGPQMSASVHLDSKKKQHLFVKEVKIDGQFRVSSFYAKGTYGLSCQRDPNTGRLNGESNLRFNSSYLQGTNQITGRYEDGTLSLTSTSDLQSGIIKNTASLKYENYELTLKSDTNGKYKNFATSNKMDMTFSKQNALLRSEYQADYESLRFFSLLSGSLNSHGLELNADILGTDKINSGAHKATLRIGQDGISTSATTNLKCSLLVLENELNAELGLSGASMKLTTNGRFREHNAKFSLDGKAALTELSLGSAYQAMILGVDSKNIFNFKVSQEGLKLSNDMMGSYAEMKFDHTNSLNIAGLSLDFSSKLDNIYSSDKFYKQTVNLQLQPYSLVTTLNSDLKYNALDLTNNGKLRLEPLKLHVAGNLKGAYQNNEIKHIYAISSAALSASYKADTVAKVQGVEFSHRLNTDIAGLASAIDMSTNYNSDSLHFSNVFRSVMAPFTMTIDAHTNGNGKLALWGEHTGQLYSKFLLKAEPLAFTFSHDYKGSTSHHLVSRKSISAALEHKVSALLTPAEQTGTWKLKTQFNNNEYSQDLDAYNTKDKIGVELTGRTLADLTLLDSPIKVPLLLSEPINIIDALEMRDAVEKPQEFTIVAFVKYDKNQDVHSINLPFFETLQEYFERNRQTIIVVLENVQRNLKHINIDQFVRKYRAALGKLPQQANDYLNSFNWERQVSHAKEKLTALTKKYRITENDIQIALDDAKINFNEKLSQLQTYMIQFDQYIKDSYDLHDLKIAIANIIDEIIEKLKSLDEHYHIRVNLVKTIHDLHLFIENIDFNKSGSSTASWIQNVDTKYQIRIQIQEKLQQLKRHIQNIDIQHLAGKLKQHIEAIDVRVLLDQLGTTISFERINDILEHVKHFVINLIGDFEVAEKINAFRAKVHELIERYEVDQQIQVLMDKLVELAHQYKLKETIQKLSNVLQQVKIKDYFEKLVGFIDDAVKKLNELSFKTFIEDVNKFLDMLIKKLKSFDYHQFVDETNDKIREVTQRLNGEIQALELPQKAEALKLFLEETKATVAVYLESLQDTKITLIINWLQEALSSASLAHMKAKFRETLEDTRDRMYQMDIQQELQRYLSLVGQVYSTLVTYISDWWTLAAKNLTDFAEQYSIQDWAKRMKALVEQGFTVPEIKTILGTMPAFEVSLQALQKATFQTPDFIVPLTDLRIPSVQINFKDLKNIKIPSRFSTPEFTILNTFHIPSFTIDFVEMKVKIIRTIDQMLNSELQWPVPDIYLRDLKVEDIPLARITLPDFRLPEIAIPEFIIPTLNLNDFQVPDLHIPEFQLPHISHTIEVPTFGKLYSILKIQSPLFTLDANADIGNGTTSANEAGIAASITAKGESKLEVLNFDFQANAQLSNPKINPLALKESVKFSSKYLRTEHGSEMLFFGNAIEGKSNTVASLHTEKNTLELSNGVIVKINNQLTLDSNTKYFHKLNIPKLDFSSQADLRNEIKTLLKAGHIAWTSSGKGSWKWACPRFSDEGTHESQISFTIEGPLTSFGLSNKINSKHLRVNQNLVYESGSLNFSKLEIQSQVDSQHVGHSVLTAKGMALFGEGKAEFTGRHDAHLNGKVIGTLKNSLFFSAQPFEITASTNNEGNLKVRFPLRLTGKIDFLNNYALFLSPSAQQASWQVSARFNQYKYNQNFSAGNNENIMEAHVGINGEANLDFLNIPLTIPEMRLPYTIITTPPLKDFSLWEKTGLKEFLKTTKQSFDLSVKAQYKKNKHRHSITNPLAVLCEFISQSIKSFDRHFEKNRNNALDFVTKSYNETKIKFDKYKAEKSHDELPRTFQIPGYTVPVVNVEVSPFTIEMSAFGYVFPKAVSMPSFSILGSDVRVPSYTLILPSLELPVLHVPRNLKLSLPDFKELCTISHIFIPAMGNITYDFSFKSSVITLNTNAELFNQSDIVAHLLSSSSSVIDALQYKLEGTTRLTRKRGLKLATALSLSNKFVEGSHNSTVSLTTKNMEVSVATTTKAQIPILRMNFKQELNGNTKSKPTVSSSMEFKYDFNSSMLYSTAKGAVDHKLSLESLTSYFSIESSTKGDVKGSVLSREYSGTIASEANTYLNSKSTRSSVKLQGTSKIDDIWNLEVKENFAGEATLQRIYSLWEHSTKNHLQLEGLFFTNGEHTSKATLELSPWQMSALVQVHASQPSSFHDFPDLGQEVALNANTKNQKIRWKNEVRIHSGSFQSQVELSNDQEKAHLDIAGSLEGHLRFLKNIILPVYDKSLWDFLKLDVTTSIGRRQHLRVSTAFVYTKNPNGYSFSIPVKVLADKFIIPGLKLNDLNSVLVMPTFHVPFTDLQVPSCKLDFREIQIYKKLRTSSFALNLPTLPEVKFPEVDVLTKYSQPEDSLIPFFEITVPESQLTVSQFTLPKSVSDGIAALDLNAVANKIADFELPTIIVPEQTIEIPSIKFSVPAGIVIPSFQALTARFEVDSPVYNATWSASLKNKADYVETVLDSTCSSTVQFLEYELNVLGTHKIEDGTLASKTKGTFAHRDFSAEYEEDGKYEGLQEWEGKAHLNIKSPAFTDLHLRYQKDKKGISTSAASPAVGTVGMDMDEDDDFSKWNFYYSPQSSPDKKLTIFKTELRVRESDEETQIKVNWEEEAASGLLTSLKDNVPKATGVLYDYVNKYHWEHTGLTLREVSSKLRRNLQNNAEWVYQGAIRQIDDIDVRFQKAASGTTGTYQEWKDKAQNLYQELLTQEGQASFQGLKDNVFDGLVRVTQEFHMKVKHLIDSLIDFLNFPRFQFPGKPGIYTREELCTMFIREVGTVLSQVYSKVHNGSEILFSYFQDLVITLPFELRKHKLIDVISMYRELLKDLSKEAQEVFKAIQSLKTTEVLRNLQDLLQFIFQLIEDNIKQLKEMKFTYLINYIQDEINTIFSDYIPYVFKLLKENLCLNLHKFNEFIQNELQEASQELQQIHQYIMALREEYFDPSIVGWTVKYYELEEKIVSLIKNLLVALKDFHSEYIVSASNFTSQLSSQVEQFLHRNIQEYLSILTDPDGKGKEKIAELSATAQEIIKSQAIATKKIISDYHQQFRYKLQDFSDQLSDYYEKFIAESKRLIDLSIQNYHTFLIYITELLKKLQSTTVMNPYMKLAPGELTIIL

With “orticumab: recombinant human IgG1 against MDA-modified peptide 45 of ApoB100; heavy chain SEQ ID NO: 316, light chain SEQ ID NO: 317” the “dose-limiting toxicities, deaths, pregnancies” value [1] was “No dose-limiting toxicities, deaths, or pregnancies”, the immunogenicity [1] was “no evidence of immunogenicity” and the “serious adverse events related to procedures or administration” value [1] was “No serious adverse events”. The tolerability [1] was “well tolerated”, the “Cmax D 1” value [2] was 297 μ/mL and the “subjects on active treatment reporting adverse events” value [3] was 44 of the 64. For the same substance, the “treatment-emergent adverse events reported on active treatment” value [3] was 115 (76.2%), the “plaque area in aortic root” value (SLE ApoE−/− mice [4]; 1 mg IP weekly at weeks 18, 19, 20, vs control antibody) was “significantly smaller plaques” and the “apoptosis in plaque areas (number of TUNEL cells)” value (SLE ApoE−/− mice [4]; 1 mg IP weekly x3) was “increased apoptosis”. For the same substance, the “lipid staining, flat preps of the aorta” value (SLE ApoE−/− mice [4]; 1 mg IP weekly x3) was “reduction, although not significant”, the “CD68+ area” value (SLE ApoE−/− mice [4]; 1 mg IP weekly x3, vs control antibody) was “reduced” and the “SAEs during the study” value [5] was “no SAEs”. The “most frequently reported TEAEs” value ([5]; sc) was “mild intensity local site reactions”, the “spleen monocytes or B cells” value (SLE ApoE−/− mice [6]; end of experiment) was “no differences” and the “plasma levels of oxidized LDL and plasma cytokines” value (SLE ApoE−/− mice [6]; mouse, in vivo) was “no differences”. For the same substance, the “binding specificity, oxidized vs native LDL” value (oxidized LDL) was “binds only to oxidized LDL and not to native LDL”, the “lipid accumulation in subvalvular plaques” value (B6.lpr.ApoE−/− mice; [10]) was “trend towards decreased” and the “reduction of CD68-macrophage subvalvular plaque staining” value (B6.lpr.ApoE−/− mice; [10]) was 30.5%. The “reduction of atherosclerosis in the aortic arch” value (B6.lpr.ApoE−/− mice; [10]) was 42.8%, the “reduction of subvalvular plaque area / development” value (B6.lpr.ApoE−/− mice) was 50% and the “reduction of subvalvular plaque area / development” value (B6.lpr.ApoE−/− mice; listed as MDA-P45 specific antibody) was 50.3%. For the same substance, the “interleukin 6 level” value ([7]; 4 weeks, multiple-dose group) was “nominal increase”, the “tumor necrosis factor alpha level” value ([7]; 4 weeks, multiple-dose group) was “nominal increase” and the “lipid parameters or high-sensitivity C-reactive protein level” value ([7]; either group) was “No significant decreases”. The “biomarkers (oxLDL, Lp-PLA2, hsCRP, sCD36, MCP-1, ICAM-1, IL-10, VCAM-1, IL-1ra, TNFα, insulin, MMP-3)” value [8] was “No treatment-induced general effects”, the “cellular uptake of oxLDL” value [9] was “increased cellular uptake” and the “expression of CD14 and uptake of oxLDL in CD14+ APC” value [9] was “increased”. The “release of anti-inflammatory cytokine IL-1RA” value [9] was “modest increase”.

Reference: patent US10858422B2, “Methods for treating systemic lupus erythematosus with an anti-apolipoprotein B antibody” (Abcentra, LLC, priority 2016, dated 2020)
